These molecules were tested against T1, ALDH1A3 (Homo sapiens, UniProt P47895) (assay: ALDH1A3 cellular assay (ALDEFLUOR) in WM266.4 melanoma cells). Conditions: WM266.4 cells; 60 min incubation; percentage of ALDH-positive cells.
T1 sequence (P47895 1-512): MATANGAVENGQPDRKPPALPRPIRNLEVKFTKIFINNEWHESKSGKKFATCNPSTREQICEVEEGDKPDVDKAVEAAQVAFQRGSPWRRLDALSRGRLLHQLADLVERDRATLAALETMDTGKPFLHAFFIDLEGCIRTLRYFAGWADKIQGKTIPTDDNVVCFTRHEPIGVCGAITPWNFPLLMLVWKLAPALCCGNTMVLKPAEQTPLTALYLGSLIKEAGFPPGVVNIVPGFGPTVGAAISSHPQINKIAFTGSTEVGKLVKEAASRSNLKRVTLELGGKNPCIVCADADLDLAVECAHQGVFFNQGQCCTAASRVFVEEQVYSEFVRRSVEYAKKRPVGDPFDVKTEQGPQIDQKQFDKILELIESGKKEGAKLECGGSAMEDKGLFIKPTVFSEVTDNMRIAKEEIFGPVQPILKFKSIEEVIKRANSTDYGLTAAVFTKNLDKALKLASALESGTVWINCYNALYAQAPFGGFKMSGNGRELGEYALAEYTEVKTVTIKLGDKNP
Format: cell-based
Excerpt: Materials: WM266.4 cells were procured from ATCC. (WM266-4 is a metastatic human melanoma cell line.) The ALDEFLUOR™ Assay kit (cat. no. 01700) and Aldefluor buffer (cat. no. 01702) were procured from StemCell Technologies. Dulbecco's Modified Eagle Medium (DMEM), FluoroBrite DMEM, Glutamax and Hoechst 33342 were purchased from ThermoFisher. Verapamil was obtained from Fluorochem. FBS was obtained from Sigma. Echo Qualified 384-well low-dead-volume microplate and Echo Qualified 384-well polypropylene microplate were purchased from Labcyte, and the Microclear black sterile polystyrene microplate from Greiner Bio-One.
Method: Intracellular inhibition of ALDH1A3 was assessed using the ALDEFLUOR™ Assay kit. The activated ALDEFLUOR™ reagent, BODIPY-aminoacetaldehyde (BAAA), is a fluorescent non-toxic substrate for ALDH enzymes, which freely diffuses into intact and viable cells. In the presence of ALDH enzyme activity, BAAA is converted into BODIPY-aminoacetate (BAA), which is retained inside the cells. The amount of fluorescent reaction product is proportional to the ALDH activity in the cells and is measured using an imaging cytometer. Active efflux of the reaction product is inhibited by an efflux inhibitor (Verapamil) in the ALDEFLUOR™ Assay Buffer.
A frozen vial of cells was recovered into a T225 flask containing DMEM, high glucose, 10% FBS, 1% glutamax, 1% HEPES. The following day, media was changed and cells were ready for assay from 72 hours after recovery. Cells were transferred into FluoroBrite DMEM (plus 10% FBS, 1% glutamax and 1% HEPES) and diluted to 2.5×10^5 cells/mL. 30 μL of cells were added to each well to give 7500 cells/well and then incubated overnight at 37° C., 5% CO2. After overnight incubation, the media was aspirated and replaced by 20 μL substrate/Hoechst buffer solution. Each plate requires 9 mL of solution comprising, 9 mL ALDEFLUOR assay buffer, 18 μL BAAA substrate (final concentration 500 nM), 4.5 μL Hoechst 33342 (final concentration 5 μg/mL) and 4.5 μL Verapamil (final concentration 50 μM). Compounds were prepared for dosing using the Echo acoustic dispenser by aliquoting into a source plate and dosed directly onto the cell assay plate to give a 10 point dose response per compound ranging from 10 μM to 0.0005 μM final concentration in 3-fold dilution steps. Plates were then incubated for 60 minutes at 37° C., 5% CO2. The buffer was then aspirated and cells washed twice in ice-cold PBS. Plates were kept on ice and 30 μL of cold Aldefluor buffer with 50 μM verapamil dispensed per well. The plates were then imaged using the CellInsight fluorescent microscope. Hoechst fluorescence in the 405 nm channel indicated the nuclear area and this was used to define nuclei and then the surrounding cellular area. Fluorescence in the 488 nm channel of the defined cellular area indicates ALDH1A3 activity. The percentage of cells positive for ALDH activity was plotted versus compound concentration to generate EC50 values using curve fitting parameters defined in Dotmatics software.

Structure (SMILES)	IC50 [µM]
O=C1CCc2cc(NC(=O)c3ocnc3-c3cccc(F)c3)ccc2N1 [ALDHI-1019, 4-(3-fluorophenyl)-N-(2-oxo-3,4-dihydro-1H-quinolin-6-yl)oxazole-5-carboxamide]	1 to 10
O=C1CCc2cc(OCCN3CCCC3c3ccc(F)c(F)c3)ccc2N1 (centres unmarked) [ALDHI-2039, 6-[2-[2-(3,4-difluorophenyl)pyrrolidin-1-yl]ethoxy]-3,4-dihydro-1H-quinolin-2-one]	0.1 to 1
O=C1CCc2cc(NC(=O)c3sc(N4CCNCC4)nc3-c3cccc(F)c3)ccc2N1 [ALDHI-1005, 4-(3-fluorophenyl)-N-(2-oxo-3,4-dihydro-1H-quinolin-6-yl)-2-piperazin-1-yl-thiazole-5-carboxamide]	< 0.1
O=C1CCc2cc(OCCN3CCCC3c3cccc(F)c3)ccc2N1 (centres unmarked) [ALDHI-2001, 6-[2-[2-(3-fluorophenyl)pyrrolidin-1-yl]ethoxy]-3,4-dihydro-1H-quinolin-2-one]	< 0.1
Cc1ccc(C2CCCN2CCOc2ccc3c(c2)CCC(=O)N3)cc1 (centres unmarked) [ALDHI-2010, 6-[2-[2-(p-tolyl)pyrrolidin-1-yl]ethoxy]-3,4-dihydro-1H-quinolin-2-one]	0.1 to 1
O=C1CSc2cc(OCCN3CCCC3c3ccncc3)ccc2N1 (centres unmarked) [ALDHI-2029, 7-[2-[2-(4-pyridyl)pyrrolidin-1-yl]ethoxy]-4H-1,4-benzothiazin-3-one]	0.1 to 1
O=C1CCc2cc(NC(=O)c3scnc3-c3ccc(F)cc3)ccc2N1 [ALDHI-1017, 4-(4-fluorophenyl)-N-(2-oxo-1,2,3,4-tetrahydroquinolin-6-yl)thiazole-5-carboxamide]	0.1 to 1
Cc1ccccc1C1CCCN1CCOc1ccc2c(c1)CCC(=O)N2 (centres unmarked) [ALDHI-2012, 6-[2-[2-(o-tolyl)pyrrolidin-1-yl]ethoxy]-3,4-dihydro-1H-quinolin-2-one]	1 to 10
O=C1CCc2cc(OCCN3CCCC3c3ccc(F)cc3)ccc2N1 (centres unmarked) [ALDHI-2003, 6-[2-[2-(4-fluorophenyl)pyrrolidin-1-yl]ethoxy]-3,4-dihydro-1H-quinolin-2-one]	1 to 10
CC1CN(CCOc2ccc3c(c2)CCC(=O)N3)C(c2ccccc2)CO1 (mixture of isomers) [ALDHI-2042, 6-[2-(2-methyl-5-phenyl-morpholin-4-yl)ethoxy]-3,4-dihydro-1H-quinolin-2-one]	0.1 to 1
O=C1CCc2cc(OCCN(CCO)Cc3cccnc3)ccc2N1 [ALDHI-3005, 6-[2-[2-hydroxyethyl(3-pyridylmethyl)amino]ethoxy]-3,4-dihydro-1H-quinolin-2-one]	0.1 to 1
COc1cccc(C2CCCN2CCOc2ccc3c(c2)CCC(=O)N3)c1 (centres unmarked) [ALDHI-2034, 6-[2-[2-(3-methoxyphenyl)pyrrolidin-1-yl]ethoxy]-3,4-dihydro-1H-quinolin-2-one]	1 to 10
O=C1CCc2cc(OCCN3CCCC3c3cccc(F)c3)c(F)cc2N1 (centres unmarked) [ALDHI-2050, 7-fluoro-6-[2-[2-(3-fluorophenyl)pyrrolidin-1-yl]ethoxy]-3,4-dihydro-1H-quinolin-2-one]	0.1 to 1
O=C1CCc2cc(NC(=O)c3cncnc3-c3cccc(F)c3)ccc2N1 [ALDHI-1018, 4-(3-fluorophenyl)-N-(2-oxo-3,4-dihydro-1H-quinolin-6-yl)pyrimidine-5-carboxamide]	0.1 to 1
O=C1COc2cc(NC(=O)c3scnc3-c3cccc(F)c3)ccc2N1 [ALDHI-1016, 4-(3-fluorophenyl)-N-(3-oxo-4H-1,4-benzoxazin-7-yl)thiazole-5-carboxamide]	< 0.1
O=C1CCc2cc(NC(=O)c3scnc3-c3ccccc3F)ccc2N1 [ALDHI-1021, 4-(2-fluorophenyl)-N-(2-oxo-3,4-dihydro-1H-quinolin-6-yl)thiazole-5-carboxamide]	< 0.1

Structure (SMILES)	IC50 [µM]
O=C1CCc2cc(OCCN3CCCC3c3ccsc3)ccc2N1 (centres unmarked) [ALDHI-2014, 6-[2-[2-(3-thienyl)pyrrolidin-1-yl]ethoxy]-3,4-dihydro-1H-quinolin-2-one]	0.1 to 1
Cc1noc(-c2ccccc2C(=O)Nc2ccc3c(c2)CCC(=O)N3)n1 [ALDHI-1008, 2-(3-methyl-1,2,4-oxadiazol-5-yl)-N-(2-oxo-1,2,3,4-tetrahydroquinolin-6-yl)benzamide]	0.1 to 1
O=C1CCc2cc(OCCn3ccnc3-c3ccccc3)ccc2N1 [ALDHI-2041, 6-[2-(2-phenylimidazol-1-yl)ethoxy]-3,4-dihydro-1H-quinolin-2-one]	1 to 10
O=C1CCc2cc(NC(=O)c3sc(N4CC(O)C4)nc3-c3cccc(F)c3)ccc2N1 [ALDHI-1004, 4-(3-fluorophenyl)-2-(3-hydroxyazetidin-1-yl)-N-(2-oxo-3,4-dihydro-1H-quinolin-6-yl)thiazole-5-carboxamide]	< 0.1
O=C1CSc2cc(OCCN3CCCC3c3cccnc3)ccc2N1 (centres unmarked) [ALDHI-2028, 7-[2-[2-(3-pyridyl)pyrrolidin-1-yl]ethoxy]-4H-1,4-benzothiazin-3-one]	0.1 to 1
C[C@@H](c1ccccc1)N(CCO)CCOc1ccc2c(c1)CCC(=O)N2 [ALDHI-3007, 6-[2-[2-hydroxyethyl-[(1S)-1-phenylethyl]amino]ethoxy]-3,4-dihydro-1H-quinolin-2-one]	0.1 to 1
CN(CCOc1ccc2c(c1)CCC(=O)N2)C(CO)c1cccc(F)c1 (centres unmarked) [ALDHI-3003, 6-[2-[[1-(3-fluorophenyl)-2-hydroxy-ethyl]-methyl-amino]ethoxy]-3,4-dihydro-1H-quinolin-2-one]	0.1 to 1
O=C1CCc2cc(NC(=O)c3ncsc3-c3cccc(F)c3)ccc2N1 [ALDHI-1014, 5-(3-fluorophenyl)-N-(2-oxo-3,4-dihydro-1H-quinolin-6-yl)thiazole-4-carboxamide]	1 to 10
O=C1CCc2cc(NC(=O)c3sc(N4CCOCC4)nc3-c3cccc(F)c3)ccc2N1 [ALDHI-1001, 4-(3-fluorophenyl)-2-morpholino-N-(2-oxo-3,4-dihydro-1H-quinolin-6-yl)thiazole-5-carboxamide]	< 0.1
O=C1CCc2cc(OCCN3CCCC3c3cccs3)ccc2N1 (centres unmarked) [ALDHI-2013, 6-[2-[2-(2-thienyl)pyrrolidin-1-yl]ethoxy]-3,4-dihydro-1H-quinolin-2-one]	0.1 to 1
CC1Oc2cc(OCCN3CCCC3c3cccc(F)c3)ccc2NC1=O (centres unmarked) [ALDHI-2044, 7-[2-[2-(3-fluorophenyl)pyrrolidin-1-yl]ethoxy]-2-methyl-4H-1,4-benzoxazin-3-one]	0.1 to 1
O=C1CSc2cc(OCCN3CCCC3c3ccccn3)ccc2N1 (centres unmarked) [ALDHI-2027, 7-[2-[2-(2-pyridyl)pyrrolidin-1-yl]ethoxy]-4H-1,4-benzothiazin-3-one]	1 to 10
O=C1CCc2cc(NC(=O)c3ncsc3-c3ccsc3)ccc2N1 [ALDHI-1011, N-(2-oxo-3,4-dihydro-1H-quinolin-6-yl)-5-(3-thienyl)thiazole-4-carboxamide]	1 to 10
CC1Cc2cc(OCCN3CCCC3c3cccc(F)c3)ccc2NC1=O (centres unmarked) [ALDHI-2048, 6-[2-[2-(3-fluorophenyl)pyrrolidin-1-yl]ethoxy]-3-methyl-3,4-dihydro-1H-quinolin-2-one]	< 0.1
O=C1CCc2cc(NC(=O)c3scnc3-c3cccs3)ccc2N1 [ALDHI-1023, N-(2-oxo-3,4-dihydro-1H-quinolin-6-yl)-4-(2-thienyl)thiazole-5-carboxamide]	< 0.1
CN(CCOc1ccc2c(c1)CCC(=O)N2)C(=O)c1cccc(F)c1 [ALDHI-3008, 3-fluoro-N-methyl-N-[2-[(2-oxo-3,4-dihydro-1H-quinolin-6-yl)oxy]ethyl]benzamide]	0.1 to 1
